Measured values published in patent US10167262B2, “Herbicidal substituted 3-arylpyrazoles” (FMC CORPORATION, priority 2014, dated 2019).

Legend:
Format in all cases: in vivo
[1] = system: barnyardgrass (Echinochloa crus-galli); experiment: Test A pre-/postemergence greenhouse herbicide test, visual injury rating 0-100
Procedure, shortened: (§1)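 Scale 0–100 (none to complete control), visual, versus untreated controls after approx. 10 greenhouse days. Pre: directed soil spray at planting. Post: 2–10 cm, one- to two-leaf plants. Non-phytotoxic solvent plus surfactant vehicle.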

corn (Zea mays) = experiment: as above
Procedure, shortened: as §1

[2] = system: giant foxtail (Setaria faberii); experiment: as above
Procedure, shortened: as §1

[3] = system: large (Lg) crabgrass (Digitaria sanguinalis); experiment: as above
Procedure, shortened: as §1

[4] = system: morningglory (Ipomoea spp.); experiment: as above
Procedure, shortened: as §1

[5] = system: pigweed (Amaranthus retroflexus); experiment: as above
Procedure, shortened: as §1

[6] = system: velvetleaf (Abutilon theophrasti); experiment: as above
Procedure, shortened: as §1

[7] = system: wheat (Triticum aestivum); experiment: as above
Procedure, shortened: as §1

[8] = system: galium (catchweed bedstraw, Galium aparine); experiment: Test C pre-/postemergence greenhouse test, plant response rating 0-100; settings: Postemergence; for Plant response rating, Galium: scale 0 to 100
Procedure, shortened: (§2)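 Visual rating vs controls after 13–15 d greenhouse; 0 = no effect, 100 = complete control. Pre: seeds in loam/sand, treated at planting. Post: seedlings 2–18 cm (1–4 leaf) in peat-based mix. Compounds in surfactant-containing non-phytotoxic solvent.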

[9] = system: morningglory (Ipomoea coccinea); experiment: as above; settings: Postemergence; for Plant response rating, Morningglory: scale 0 to 100
Procedure, shortened: as §2

[10] = system: chickweed (common chickweed, Stellaria media); experiment: Test C postemergence greenhouse test, plant response rating 0-100; settings: for Plant response rating, Chickweed: scale 0 to 100
Procedure, shortened: (§3)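 First, plants were raised in a sphagnum peat, vermiculite and nutrient medium to 1–4 leaves. Next, formulated test compounds were applied over the foliage. Finally, after 13–15 greenhouse days, injury was compared with controls and scored 0–100.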

kochia (Kochia scoparia) = experiment: as above; settings: for Plant response rating, Kochia: scale 0 to 100
Procedure, shortened: as §3

wild oat (Avena fatua) = experiment: as above; settings: for Plant response rating, Oat, Wild: scale 0 to 100
Procedure, shortened: as §3

CC(C)n1cc(C(=O)c2ccccc2)c(-c2cc(Cl)cc(Cl)c2)n1 [Compound 44]
Plant response rating (0 to 100 scale), Barnyardgrass ([1]; Postemergence, 125 g ai/ha): 0
Plant response rating (0 to 100 scale), Barnyardgrass ([1]; Postemergence, 500 g ai/ha): 0
Barnyardgrass plant response rating (0 = no effect, 100 = complete control) ([1]; Preemergence, 125 g ai/ha): 0
Plant response rating (0 to 100 scale), Barnyardgrass ([1]; Preemergence, 500 g ai/ha): 0
Plant response rating (0 to 100 scale), Corn (corn (Zea mays); Postemergence, 125 g ai/ha): 0
Plant response rating (0 to 100 scale), Corn (corn (Zea mays); Postemergence, 500 g ai/ha): 0
Corn plant response rating (0 = no effect, 100 = complete control) (corn (Zea mays); Preemergence, 125 g ai/ha): 0
Plant response rating (0 to 100 scale), Corn (corn (Zea mays); Preemergence, 500 g ai/ha): 0
Plant response rating (0 to 100 scale), Foxtail, Giant ([2]; Postemergence, 125 g ai/ha): 0
Plant response rating (0 to 100 scale), Foxtail, Giant ([2]; Postemergence, 500 g ai/ha): 0
Foxtail, Giant plant response rating (0 = no effect, 100 = complete control) ([2]; Preemergence, 125 g ai/ha): 0
Plant response rating (0 to 100 scale), Foxtail, Giant ([2]; Preemergence, 500 g ai/ha): 0
Plant response rating (0 to 100 scale), Crabgrass, Large ([3]; Postemergence, 125 g ai/ha): 0
Plant response rating (0 to 100 scale), Crabgrass, Large ([3]; Postemergence, 500 g ai/ha): 0
Crabgrass, Large plant response rating (0 = no effect, 100 = complete control) ([3]; Preemergence, 125 g ai/ha): 0
Plant response rating (0 to 100 scale), Crabgrass, Large ([3]; Preemergence, 500 g ai/ha): 0
Morningglory plant response rating (0 = no effect, 100 = complete control) ([4]; Preemergence, 125 g ai/ha): 0
Plant response rating (0 to 100 scale), Morningglory ([4]; Preemergence, 500 g ai/ha): 0
Plant response rating (0 to 100 scale), Pigweed ([5]; Postemergence, 125 g ai/ha): 80
Plant response rating (0 to 100 scale), Pigweed ([5]; Postemergence, 500 g ai/ha): 100
Pigweed plant response rating (0 = no effect, 100 = complete control) ([5]; Preemergence, 125 g ai/ha): 0
Plant response rating (0 to 100 scale), Pigweed ([5]; Preemergence, 500 g ai/ha): 70
Plant response rating (0 to 100 scale), Velvetleaf ([6]; Postemergence, 125 g ai/ha): 90
Plant response rating (0 to 100 scale), Velvetleaf ([6]; Postemergence, 500 g ai/ha): 90
Velvetleaf plant response rating (0 = no effect, 100 = complete control) ([6]; Preemergence, 125 g ai/ha): 20
Plant response rating (0 to 100 scale), Velvetleaf ([6]; Preemergence, 500 g ai/ha): 40
Plant response rating (0 to 100 scale), Wheat ([7]; Postemergence, 125 g ai/ha): 0
Plant response rating (0 to 100 scale), Wheat ([7]; Postemergence, 500 g ai/ha): 0
Wheat plant response rating (0 = no effect, 100 = complete control) ([7]; Preemergence, 125 g ai/ha): 0
Plant response rating (0 to 100 scale), Wheat ([7]; Preemergence, 500 g ai/ha): 0
Plant response rating (0 to 100), Galium ([8]; 31 g ai/ha): 0
Plant response rating (0 to 100), Galium ([8]; 62 g ai/ha): 0
Plant response rating (0 to 100), Galium ([8]; 125 g ai/ha): 0
Plant response rating, Galium ([8]; 250 g ai/ha): 0
Plant response rating (0 to 100), Morningglory ([9]; 62 g ai/ha): 0
Plant response rating (0 to 100), Morningglory ([9]; 125 g ai/ha): 5
Plant response rating, Morningglory ([9]; 250 g ai/ha): 5
Plant response rating (0 to 100), Chickweed ([10]; 31 g ai/ha): 20
Plant response rating (0 to 100), Chickweed ([10]; 62 g ai/ha): 35
Plant response rating, Chickweed ([10]; 250 g ai/ha): 50
Plant response rating (0 to 100), Kochia (kochia (Kochia scoparia); 62 g ai/ha): 55
Plant response rating (0 to 100), Kochia (kochia (Kochia scoparia); 125 g ai/ha): 65
Plant response rating, Kochia (kochia (Kochia scoparia); 250 g ai/ha): 65
Plant response rating (0 to 100), Oat, Wild (wild oat (Avena fatua); 62 g ai/ha): 0
Plant response rating (0 to 100), Oat, Wild (wild oat (Avena fatua); 125 g ai/ha): 0
Plant response rating, Oat, Wild (wild oat (Avena fatua); 250 g ai/ha): 0

ON=C(c1ccccc1)c1c[nH]nc1-c1cc(Cl)cc(Cl)c1 [Compound 50]
Plant response rating (0 to 100 scale), Barnyardgrass ([1]; Postemergence, 1000 g ai/ha): 0
Plant response rating (0 to 100 scale), Barnyardgrass ([1]; Preemergence, 1000 g ai/ha): 0
Plant response rating (0 to 100 scale), Corn (corn (Zea mays); Postemergence, 1000 g ai/ha): 0
Plant response rating (0 to 100 scale), Corn (corn (Zea mays); Preemergence, 1000 g ai/ha): 0
Plant response rating (0 to 100 scale), Foxtail, Giant ([2]; Postemergence, 1000 g ai/ha): 10
Plant response rating (0 to 100 scale), Foxtail, Giant ([2]; Preemergence, 1000 g ai/ha): 0
Plant response rating (0 to 100 scale), Crabgrass, Large ([3]; Postemergence, 1000 g ai/ha): 0
Plant response rating (0 to 100 scale), Crabgrass, Large ([3]; Preemergence, 1000 g ai/ha): 0
Plant response rating (0 to 100 scale), Morningglory ([4]; Postemergence, 1000 g ai/ha): 0
Plant response rating (0 to 100 scale), Morningglory ([4]; Preemergence, 1000 g ai/ha): 0
Plant response rating (0 to 100 scale), Pigweed ([5]; Postemergence, 1000 g ai/ha): 90
Plant response rating (0 to 100 scale), Pigweed ([5]; Preemergence, 1000 g ai/ha): 100
Plant response rating (0 to 100 scale), Velvetleaf ([6]; Postemergence, 1000 g ai/ha): 100
Plant response rating (0 to 100 scale), Velvetleaf ([6]; Preemergence, 1000 g ai/ha): 90
Plant response rating (0 to 100 scale), Wheat ([7]; Postemergence, 1000 g ai/ha): 0
Plant response rating (0 to 100 scale), Wheat ([7]; Preemergence, 1000 g ai/ha): 0
Plant response rating (0 to 100), Galium ([8]; 31 g ai/ha): 0
Plant response rating (0 to 100), Galium ([8]; 62 g ai/ha): 0
Plant response rating (0 to 100), Galium ([8]; 125 g ai/ha): 5
Plant response rating, Galium ([8]; 250 g ai/ha): 5
Plant response rating (0 to 100), Morningglory ([9]; 62 g ai/ha): 0
Plant response rating (0 to 100), Morningglory ([9]; 125 g ai/ha): 0
Plant response rating, Morningglory ([9]; 250 g ai/ha): 0
Plant response rating (0 to 100), Chickweed ([10]; 31 g ai/ha): 95
Plant response rating (0 to 100), Chickweed ([10]; 62 g ai/ha): 95
Plant response rating (0 to 100), Chickweed ([10]; 125 g ai/ha): 100
Plant response rating, Chickweed ([10]; 250 g ai/ha): 100
Plant response rating (0 to 100), Kochia (kochia (Kochia scoparia); 62 g ai/ha): 60
Plant response rating (0 to 100), Kochia (kochia (Kochia scoparia); 125 g ai/ha): 65
Plant response rating, Kochia (kochia (Kochia scoparia); 250 g ai/ha): 65
Plant response rating (0 to 100), Oat, Wild (wild oat (Avena fatua); 62 g ai/ha): 0
Plant response rating (0 to 100), Oat, Wild (wild oat (Avena fatua); 125 g ai/ha): 0
Plant response rating, Oat, Wild (wild oat (Avena fatua); 250 g ai/ha): 0

Fc1cccc(NN=C(c2ccccc2)c2c[nH]nc2-c2cc(Cl)cc(Cl)c2)c1 [Compound 58]
Plant response rating (0 to 100 scale), Barnyardgrass ([1]; Postemergence, 1000 g ai/ha): 0
Plant response rating (0 to 100 scale), Barnyardgrass ([1]; Preemergence, 1000 g ai/ha): 0
Plant response rating (0 to 100 scale), Corn (corn (Zea mays); Postemergence, 1000 g ai/ha): 0
Plant response rating (0 to 100 scale), Corn (corn (Zea mays); Preemergence, 1000 g ai/ha): 0
Plant response rating (0 to 100 scale), Foxtail, Giant ([2]; Postemergence, 1000 g ai/ha): 0
Plant response rating (0 to 100 scale), Foxtail, Giant ([2]; Preemergence, 1000 g ai/ha): 0
Plant response rating (0 to 100 scale), Crabgrass, Large ([3]; Postemergence, 1000 g ai/ha): 0
Plant response rating (0 to 100 scale), Crabgrass, Large ([3]; Preemergence, 1000 g ai/ha): 0
Plant response rating (0 to 100 scale), Morningglory ([4]; Postemergence, 1000 g ai/ha): 0
Plant response rating (0 to 100 scale), Morningglory ([4]; Preemergence, 1000 g ai/ha): 0
Plant response rating (0 to 100 scale), Pigweed ([5]; Postemergence, 1000 g ai/ha): 90
Plant response rating (0 to 100 scale), Pigweed ([5]; Preemergence, 1000 g ai/ha): 100
Plant response rating (0 to 100 scale), Velvetleaf ([6]; Postemergence, 1000 g ai/ha): 90
Plant response rating (0 to 100 scale), Velvetleaf ([6]; Preemergence, 1000 g ai/ha): 90
Plant response rating (0 to 100 scale), Wheat ([7]; Postemergence, 1000 g ai/ha): 0
Plant response rating (0 to 100 scale), Wheat ([7]; Preemergence, 1000 g ai/ha): 0
Plant response rating (0 to 100), Galium ([8]; 62 g ai/ha): 0
Plant response rating (0 to 100), Galium ([8]; 125 g ai/ha): 0
Plant response rating, Galium ([8]; 250 g ai/ha): 0
Plant response rating, Galium ([8]; 500 g ai/ha): 5
Plant response rating (0 to 100), Morningglory ([9]; 62 g ai/ha): 0
Plant response rating (0 to 100), Morningglory ([9]; 125 g ai/ha): 0
Plant response rating, Morningglory ([9]; 250 g ai/ha): 0
Plant response rating, Morningglory ([9]; 500 g ai/ha): 0
Plant response rating (0 to 100), Chickweed ([10]; 62 g ai/ha): 70
Plant response rating (0 to 100), Chickweed ([10]; 125 g ai/ha): 100
Plant response rating, Chickweed ([10]; 250 g ai/ha): 100
Plant response rating, Chickweed ([10]; 500 g ai/ha): 100
Plant response rating (0 to 100), Kochia (kochia (Kochia scoparia); 62 g ai/ha): 15
Plant response rating (0 to 100), Kochia (kochia (Kochia scoparia); 125 g ai/ha): 50
Plant response rating, Kochia (kochia (Kochia scoparia); 250 g ai/ha): 98
Plant response rating, Kochia (kochia (Kochia scoparia); 500 g ai/ha): 98
Plant response rating (0 to 100), Oat, Wild (wild oat (Avena fatua); 62 g ai/ha): 0
Plant response rating (0 to 100), Oat, Wild (wild oat (Avena fatua); 125 g ai/ha): 0
Plant response rating, Oat, Wild (wild oat (Avena fatua); 250 g ai/ha): 0
Plant response rating, Oat, Wild (wild oat (Avena fatua); 500 g ai/ha): 0
